Consider one compound from publication PMC8909834, “An Orally Bioavailable and Highly Efficacious Inhibitor of CDK9/FLT3 for the Treatment of Acute Myeloid Leukemia” (Cancers, 2022).

The target in data set [1] is CDK4D1 (Homo sapiens, UniProt P11802). The experiment in a line: ADP Glo kinase assay. Particulars: calculated from IC50 using the Cheng-Prusoff equation. It counts as biochemical. The protocol: (§1) Kinase assay. The ADP Glo^TM kinase assay (Promega, Madison, WI, USA) was used to assess the inhibition by CDDD11-8 of CDKs 1, 2, 4, 6, 7, and 9, as well as the mutant isoforms of FLT3. The assays were performed in accord with the manufacturer’s protocol (Promega) as described previously. Briefly, serial three-fold dilutions of CDDD11-8 were prepared in 100% DMSO from a 2 mM stock solution, followed by 1:40 dilution into Milli-Q water. Subsequently, 1 µL of each sample was incubated with 4 µL of kinase mixture containing a particular CDK enzyme and its substrate, standard kinase buffer [3 mM MgCl2, 50 mM HEPES-NaOH pH 7.5, 3 mM MnCl2, 3 µM Na-orthovanadate, 1 mM dithiothreitol (DTT)], kinase dilution buffer (containing 0.25 mg/mL PEG20,000, 50 mM HEPES-NaOH pH 7.5, 1 mM DTT), and ATP at 37 °C for 30 to 40 min. The final reaction mixture contained 0.5% DMSO in all samples, and the applied kinase concentrations were 1, 1, 10, 40, 20, and 50 nM for CDK1, 2, 4, 6, 7, and 9, respectively. The reaction was stopped by adding ADP-Glo reagent and the mixture was incubated further in the dark at room temperature for 40 min. As a final step, kinase detection reagent was added to each mixture and incubated at room temperature for 30 to 60 min. Luminescence was read using an EnVision® multilabel plate reader (PerkinElmer, Beaconsfield, UK), and half-maximum inhibitory concentrations (IC50) were calculated using a non-linear regression model with a variable slope, plotting log (inhibitor concentration) vs. response using the following formula: Ar%=Bottom+Top−Bottom/1+Inhibitor Concentration/IC50^HillSlope where the relative activity Ar (%) is the signal relative to the controls, IC50 is the half maximum concentration, Hillslope is the steepness of the dose-response curve, Top and Bottom are plateaus reflecting the maximum and minimum in responses on the Y-axis (GraphPad Prism version 7, San Diego, CA, USA). Ki values were calculated from the IC50 using the Cheng−Prusoff equation [32]. Extensive specificity assessment was carried out by Reaction Biology Corporation (Malvern, PA, USA) with 369 kinases using 1 µM CDDD11-8 concentration in a Kinase Hotspot radiolabel assay (for experimental details, please see (Reaction Biology https://www.reactionbiology.com/). Subsequently, Ki values were determined for kinases with greater than 90% inhibition.

In data set [2] the target is T1, FLT3 (Homo sapiens, UniProt P36888).
T1 construct: purchased Reaction Biology Corporation (Kinase HotSpot)
Nature of the data set: ADP Glo kinase assay. It counts as biochemical. Particulars: calculated from IC50 using the Cheng-Prusoff equation. The method, then: as §1

A short description of data set [3]: Dissociation constant by PH metric assay. The data set is classed as physicochemical.
In data set [4] the test system is MV4-11 tumors. The experiment in a line: In vivo target engagement (western blot of tumor lysates). The note with it: 75 and 125 mg/kg orally for 5 days, 4 h post final dose. Details: species or system mice. The method, then: Western blotting. Western blotting was performed as described previously. Briefly, cells were lysed after incubation with different concentrations of compounds or control (0.1% DMSO) at the indicated times, samples were denatured at 95 °C for 5 min, and proteins having different molecular weights within each sample were separated by electrophoresis (Bio-Rad, Hercules, CA, USA) on polyacrylamide gels (4–20%, Bio-Rad). Resolved proteins were electrophoretically transferred onto a PVDF membrane and blocked by incubating with 10% w/v non-fat powdered milk dissolved in 1 × Tris-buffered saline-tween 20 (TBST) for 1 h at room temperature prior to incubating overnight with primary antibodies at 4 °C with slight shaking. Chemiluminescence was detected with a ChemiDoc^TM gel imaging system after the membranes have been exposed to ECL substrates (GE Healthcare, PA, USA), and the Image Lab software (Bio-Rad) was used for image capture. […] Bands were quantified using ImageJ software (US National Institutes of Health, Bethesda, MD, USA). […]
A general note: A western blot detects proteins with antibodies after separation by electrophoresis.

Data set [5] can be described thus: Drug concentration in plasma and tumor 4 h post final dose. It counts as in vivo, MV4-11 tumor-bearing mice. The note with it: BALB/c nude (nu/nu), mouse, oral; for concentration at 4 h: 4 h post final dose. The protocol:
To investigate the effect of CDDD11-8 on its targets in vivo, MV4-11 tumor-bearing mice (n = 3) were treated with the vehicle, CDDD11-8 (75 and 125 mg/kg), orally for 5 days. Four hours post final dose, tumor samples were collected and lysates prepared for western blot analysis (Figure 4C, Supplementary Figure S19). […] These were accompanied by changes in the levels of the proteins involved in cancer cell survival.
We also determined the concentration of CDDD11-8 in the plasma and tumor (Figure 4D, Supplementary Table S5). […] The tumor concentration from the 75 mg/kg dose was 2.5-times the plasma concentration. However, the plasma and tumor concentrations from 125 mg/kg were similar.

Read-outs that look alike come from different tables or passages of the source.

T1 sequence (P36888 27-993): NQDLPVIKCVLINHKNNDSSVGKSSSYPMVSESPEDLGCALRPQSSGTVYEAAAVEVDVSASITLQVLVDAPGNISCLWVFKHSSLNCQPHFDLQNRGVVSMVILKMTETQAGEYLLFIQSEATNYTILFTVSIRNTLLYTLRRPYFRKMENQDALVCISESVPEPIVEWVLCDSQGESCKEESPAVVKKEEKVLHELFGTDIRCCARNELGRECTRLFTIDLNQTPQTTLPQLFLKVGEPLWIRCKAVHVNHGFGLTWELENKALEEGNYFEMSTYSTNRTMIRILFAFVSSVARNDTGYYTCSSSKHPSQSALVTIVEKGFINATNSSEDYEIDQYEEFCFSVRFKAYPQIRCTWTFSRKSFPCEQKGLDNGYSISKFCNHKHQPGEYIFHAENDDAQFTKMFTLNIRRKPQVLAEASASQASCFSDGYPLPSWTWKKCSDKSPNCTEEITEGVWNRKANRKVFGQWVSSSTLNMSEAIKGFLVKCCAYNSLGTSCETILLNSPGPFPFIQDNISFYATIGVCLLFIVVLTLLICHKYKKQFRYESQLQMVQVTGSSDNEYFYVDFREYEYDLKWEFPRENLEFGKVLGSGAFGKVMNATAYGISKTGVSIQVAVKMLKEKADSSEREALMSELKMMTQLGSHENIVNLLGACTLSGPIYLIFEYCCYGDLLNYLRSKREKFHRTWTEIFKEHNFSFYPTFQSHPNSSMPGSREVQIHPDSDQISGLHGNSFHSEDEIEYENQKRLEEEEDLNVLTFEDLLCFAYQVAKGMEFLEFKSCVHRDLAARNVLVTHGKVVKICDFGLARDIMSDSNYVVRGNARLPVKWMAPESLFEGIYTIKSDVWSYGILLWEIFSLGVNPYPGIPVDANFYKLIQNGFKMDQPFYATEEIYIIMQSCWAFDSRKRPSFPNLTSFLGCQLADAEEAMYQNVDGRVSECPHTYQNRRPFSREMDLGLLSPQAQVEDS
CDK4D1, sequence (P11802 whole entry, canonical isoform): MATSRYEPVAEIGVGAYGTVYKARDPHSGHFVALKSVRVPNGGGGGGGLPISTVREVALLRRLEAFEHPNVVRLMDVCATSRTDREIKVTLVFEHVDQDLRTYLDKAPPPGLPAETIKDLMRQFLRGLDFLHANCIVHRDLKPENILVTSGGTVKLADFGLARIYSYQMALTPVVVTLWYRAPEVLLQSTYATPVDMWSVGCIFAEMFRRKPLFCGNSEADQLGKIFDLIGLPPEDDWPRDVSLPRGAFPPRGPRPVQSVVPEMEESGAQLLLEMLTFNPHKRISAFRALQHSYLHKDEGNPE
CDK4D1, sequence (P24385 whole entry partner, canonical isoform): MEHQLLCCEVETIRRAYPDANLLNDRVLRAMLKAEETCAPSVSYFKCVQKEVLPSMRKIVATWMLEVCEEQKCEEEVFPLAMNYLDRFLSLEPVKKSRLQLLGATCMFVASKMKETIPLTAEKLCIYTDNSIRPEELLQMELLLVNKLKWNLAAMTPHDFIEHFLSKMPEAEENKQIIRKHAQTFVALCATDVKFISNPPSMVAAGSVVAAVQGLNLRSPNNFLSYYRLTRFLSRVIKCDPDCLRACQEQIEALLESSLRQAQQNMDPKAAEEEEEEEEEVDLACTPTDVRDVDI

For `Cc1cnc(N[C@H]2CC[C@H](N)CC2)nc1-c1cnc2ccc(-c3ccccc3)cn12` [CDDD11-8], the values for the Ki in data set [1] and in data set [2] were more than 1000 nM and 46 nM, respectively. Further, the pKa was found to be 2.75 in data set [3] (first of three values), 4.95 in data set [3] (second of three values) and 9.89 in data set [3] (third of three values). In addition, the “level of MCL1 in tumors” value in data set [4] is given as “greatly reduced”. In data set [4], the “phosphorylation of FLT3 at Tyr591 and STAT5 at Tyr 694 in tumors” value was “reduced”. The “phosphorylation of RNAPII at Ser2 and Ser5 in tumors” value in data set [4] is “potently inhibited”. Besides, the concentration at 4 h in data set [5] (plasma, 75 mg/kg, 75 mg/kg orally 5 days, mouse 1, read-out: Plasma concentration) came out at 490 ng/mL; in data set [5] (plasma, 75 mg/kg, 75 mg/kg orally 5 days, mouse 2, read-out: Plasma concentration) it was 441 ng/mL; in data set [5] (plasma, 75 mg/kg, 75 mg/kg orally 5 days, mouse 3, read-out: Plasma concentration), 1090 ng/mL; in data set [5] (plasma, 125 mg/kg, 125 mg/kg orally 5 days, mouse 1, read-out: Plasma concentration), 1440 ng/mL; in data set [5] (plasma, 125 mg/kg, 125 mg/kg orally 5 days, mouse 2, read-out: Plasma concentration), 2850 ng/mL; in data set [5] (plasma, 125 mg/kg, 125 mg/kg orally 5 days, mouse 3, read-out: Plasma concentration), 1800 ng/mL. The concentration at 4 h was determined as 2140 ng/g in data set [5] (tumor, 75 mg/kg, 75 mg/kg orally 5 days, mouse 1, read-out: Tumor concentration); 1780 ng/g in data set [5] (tumor, 75 mg/kg, 75 mg/kg orally 5 days, mouse 2, read-out: Tumor concentration); 1480 ng/g in data set [5] (tumor, 75 mg/kg, 75 mg/kg orally 5 days, mouse 3, read-out: Tumor concentration); 1680 ng/g in data set [5] (tumor, 125 mg/kg, 125 mg/kg orally 5 days, mouse 1, read-out: Tumor concentration); 2310 ng/g in data set [5] (tumor, 125 mg/kg, 125 mg/kg orally 5 days, mouse 2, read-out: Tumor concentration); 1850 ng/g in data set [5] (tumor, 125 mg/kg, 125 mg/kg orally 5 days, mouse 3, read-out: Tumor concentration). In data set [5] (tumor, 75 mg/kg, read-out: tumor concentration relative to plasma concentration), the Kp at 4 h was 2.5.

As usually defined, the Ki is a dissociation constant, usually derived from enzyme kinetics or from competition with a known ligand. Broadly, the pKa is the negative logarithm of the acid dissociation constant. Read a low pKa as a stronger acid or weaker base.
